Test systems include SR leukemia; TK-10 renal; SF-539 CNS; NCI-H23 lung; HCT-116 colon; MALME-3M melanoma; SF-268 CNS; SK-MEL-5 melanoma; HL-60(TB) leukemia; SK-OV-3 ovarian.
What all share (assay): NCI anticancer screen, dose series, 48 h

Values joined by “and” are separate entries in the source; they are usually repeats but may differ in a detail not shown here. Equal entries are not always repeated.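 All cell lines were grown in 96-well plates and treated with compound for 48 hours. At the GI50, growth is halved. At the TGI there is no net growth.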 *1 amine or outer side, *2 acyl side, *3 side chain or, on linkers, in order; H or OH if unused. Where a SMILES comes first, the peptide text is derived from it. Bridges are numbered along the chain shown (N, C = ends). Roman numbers before positions name the chains, in order. [ ]: non-standard residue; d: D form. Actinocin(9to1) = Cc1c2oc3c(C)ccc(C(=O)[*:1])c3nc-2c(C(=O)[*:2])c(N)c1=O; NMeF = CN[CH](Cc1ccccc1)C(=O)O; Sar = CNCC(=O)O A value given as a limit tells only on which side of the number the result lay.

As for `Cc1c2oc3c(C)ccc(C(=O)NC4C(=O)NC(C(C)C)C(=O)N5CCCC5C(=O)N(C)CC(=O)N(C)C(Cc5ccccc5)C(=O)OC4C)c3nc-2c(C(=O)NC2C(=O)NC(C(C)C)C(=O)N3CCCC3C(=O)N(C)CC(=O)N(C)C(Cc3ccccc3)C(=O)OC2C)c(N)c1=O` (stereo unspecified) (I: TVP[Sar][NMeF] / II: TVP[Sar][NMeF]; ester I:1-I:C, II:1-II:C; linker I:N-II:N via Actinocin(9to1); configuration not given here), the GI50 in the experiment with SR leukemia is 0.000199 µM; in the experiment on TK-10 renal, < 0.01 µM and 0.049 µM; in the experiment with HCT-116 colon, less than 0.01 µM; with HL-60(TB) leukemia, 0.00285 µM. The TGI in the experiment with TK-10 renal was greater than 1 µM; in the experiment on SF-539 CNS it was < 0.01 µM and 0.0439 µM; in the experiment with NCI-H23 lung it was < 0.01 µM and 0.0376 µM; in the experiment with HCT-116 colon, 0.194 µM and > 1 µM; in the experiment on MALME-3M melanoma, < 0.01 µM and 0.0493 µM; in the experiment with SF-268 CNS it was greater than 0.674 µM. Moreover, the TGI in the experiment with SK-MEL-5 melanoma was < 0.01 µM and 0.0479 µM; with HL-60(TB) leukemia, 0.0205 µM.
As for `O=C(CC/C(CC(=O)c1ccc(Br)cc1)=N\O)Nc1ccc(Cl)c(Cl)c1`, the TGI in the experiment with SK-OV-3 ovarian, with SR leukemia, in the experiment with TK-10 renal, in the experiment on SF-539 CNS, in the experiment on NCI-H23 lung and in the experiment with HCT-116 colon was greater than 100 µM each time. The TGI with MALME-3M melanoma, in the experiment with SF-268 CNS, in the experiment with SK-MEL-5 melanoma and in the experiment on HL-60(TB) leukemia was greater than 100 µM each time.
As for `Nc1ncc(-c2cccc(S(N)(=O)=O)c2)c2scc(-c3ccc(F)c(Cl)c3)c12`, the GI50 with SK-OV-3 ovarian is 5.14 µM; in the experiment with SR leukemia, 7.12 µM; with TK-10 renal, 6.58 µM; with SF-539 CNS it was 5.27 µM; in the experiment on NCI-H23 lung, 7.05 µM; in the experiment with HCT-116 colon, 4.34 µM. Moreover, the GI50 in the experiment on MALME-3M melanoma is 6.94 µM; in the experiment with SF-268 CNS, 5.93 µM; with SK-MEL-5 melanoma, 4 µM; in the experiment on HL-60(TB) leukemia it was 4.76 µM. Further, the TGI was greater than 17.6 µM in the experiment on SK-OV-3 ovarian; greater than 15.9 µM with SR leukemia; 16.4 µM in the experiment on TK-10 renal; 13.2 µM in the experiment with SF-539 CNS; greater than 21 µM in the experiment on NCI-H23 lung; 8.29 µM in the experiment on HCT-116 colon. Moreover, the TGI was 16.6 µM in the experiment with MALME-3M melanoma, greater than 25 µM with SF-268 CNS, 7.46 µM with SK-MEL-5 melanoma and 11.7 µM in the experiment with HL-60(TB) leukemia.
For `O=C1C(Cl)=C(Nc2cccc(C(F)(F)F)c2)C(=O)N1Cc1ccc(Cl)cc1`, the GI50 is 3.78 µM with SK-OV-3 ovarian; less than 0.0219 µM with SR leukemia; 1.08 µM in the experiment with TK-10 renal; 0.128 µM in the experiment on SF-539 CNS; 0.162 µM with NCI-H23 lung; 0.0705 µM with HCT-116 colon. The GI50 in the experiment with MALME-3M melanoma is less than 0.0488 µM; in the experiment with SF-268 CNS, 0.312 µM; in the experiment with SK-MEL-5 melanoma, 0.621 µM; in the experiment with HL-60(TB) leukemia it was 1.7 µM. Moreover, the TGI with SK-OV-3 ovarian was 20.8 µM; in the experiment on SR leukemia it was greater than 65.3 µM; in the experiment with TK-10 renal, 19.3 µM; in the experiment on SF-539 CNS, 2.09 µM; in the experiment on NCI-H23 lung, 8.01 µM; in the experiment with HCT-116 colon, 4.88 µM. Further, the TGI in the experiment on MALME-3M melanoma was 0.741 µM; with SF-268 CNS, 14.8 µM; with SK-MEL-5 melanoma, 13.5 µM; in the experiment with HL-60(TB) leukemia, greater than 100 µM.
Take `Cc1ccc(Sc2cc3c(oc2=O)-c2ccccc2OC3O)cc1` (stereo unspecified): the GI50 with SR leukemia is 18.4 µM; in the experiment on TK-10 renal, 33.8 µM; in the experiment on SF-539 CNS, 19.3 µM; with NCI-H23 lung, 27.7 µM; in the experiment on HCT-116 colon, 25.6 µM; with MALME-3M melanoma, 25 µM. The GI50 in the experiment with SF-268 CNS is 30.3 µM; with SK-MEL-5 melanoma it was 17.1 µM; in the experiment with HL-60(TB) leukemia, 16.6 µM. Besides, the TGI was found to be 46.3 µM in the experiment on SR leukemia; 84.9 µM in the experiment on TK-10 renal; 33.8 µM with SF-539 CNS; 55.3 µM in the experiment with NCI-H23 lung; 59.4 µM in the experiment with HCT-116 colon; 49.2 µM in the experiment with MALME-3M melanoma. Besides, the TGI was determined as 88.6 µM in the experiment on SF-268 CNS, 32.9 µM in the experiment on SK-MEL-5 melanoma and 37.1 µM with HL-60(TB) leukemia.
For `O=C(O)/C(=C\c1ccncc1)c1cccc2ccccc12`, the TGI in the experiment on SK-OV-3 ovarian, with SR leukemia, in the experiment with TK-10 renal, in the experiment with SF-539 CNS, with NCI-H23 lung and with HCT-116 colon was greater than 100 µM in each case. The TGI in the experiment with MALME-3M melanoma, with SF-268 CNS, with SK-MEL-5 melanoma and in the experiment on HL-60(TB) leukemia was greater than 100 µM throughout.
With `CC(C)=CCCC(C)C1=C(O)C(=O)C(C)=CC1=O` (stereo unspecified), the TGI in the experiment with SK-OV-3 ovarian came to 78.5 µM; in the experiment with SR leukemia it was 5.39 µM; in the experiment with TK-10 renal, 23.5 µM; with SF-539 CNS, 41.9 µM; in the experiment with NCI-H23 lung it was 34 µM; in the experiment with HCT-116 colon it was 12.8 µM. Besides, the TGI is 23 µM with MALME-3M melanoma, 56.6 µM in the experiment with SF-268 CNS, 24.6 µM with SK-MEL-5 melanoma and 0.586 µM in the experiment on HL-60(TB) leukemia.
As to `Cc1c([N+](=O)[O-])oc2ccc3ccccc3c12`, the TGI was greater than 100 µM with SK-OV-3 ovarian; greater than 100 µM in the experiment on SR leukemia; greater than 100 µM in the experiment on TK-10 renal; greater than 100 µM with SF-539 CNS; greater than 100 µM in the experiment with NCI-H23 lung; 34.2 µM with HCT-116 colon. In addition, the TGI in the experiment on SF-268 CNS, in the experiment with SK-MEL-5 melanoma and in the experiment with HL-60(TB) leukemia was greater than 100 µM throughout.
As to `Cc1cccc2c(O)cc(=O)oc12`, the TGI in the experiment on SK-OV-3 ovarian, in the experiment with SR leukemia, with TK-10 renal, with SF-539 CNS, in the experiment on NCI-H23 lung and with HCT-116 colon was greater than 100 µM each time. The TGI in the experiment with MALME-3M melanoma, in the experiment on SF-268 CNS and in the experiment on HL-60(TB) leukemia was greater than 100 µM throughout.
Consider `O=Nc1c(-c2c(O)[nH]c3ccc(Br)cc23)[nH]c2ccccc12`, for which the GI50 is 5.22 µM with SK-OV-3 ovarian; 2.12 µM in the experiment on SR leukemia; 3.77 µM in the experiment with TK-10 renal; 2.62 µM in the experiment with SF-539 CNS; 3.13 µM with NCI-H23 lung; 21.8 µM with MALME-3M melanoma. The GI50 with SF-268 CNS is 3.75 µM; in the experiment with SK-MEL-5 melanoma, 1.24 µM; in the experiment on HL-60(TB) leukemia, 3.38 µM. In addition, the TGI with SK-OV-3 ovarian is 77.3 µM; in the experiment with SR leukemia, 5.62 µM; with TK-10 renal, greater than 100 µM; in the experiment with SF-539 CNS, 7.47 µM; with NCI-H23 lung, 12.8 µM; with MALME-3M melanoma, greater than 100 µM. The TGI with SF-268 CNS amounted to 22.6 µM; in the experiment with SK-MEL-5 melanoma it was 2.53 µM; in the experiment with HL-60(TB) leukemia it was 6.22 µM.

Values taken from PubChem BioAssay (NCI).
